{"source": "patent US20100184683A1", "about": "“ANTIBACTERIAL AND ANTIFUNGAL PEPTIDES” (C3 JIAN, INC., priority 2009, published 2010)", "key": {"C. difficile": {"system": "C. difficile", "format": "cell-based, Clostridium difficile", "description": "(§1) In certain embodiments the MIC assays are performed as described herein in the Examples. For each organism, the media and growth conditions utilized is detailed in Table 8.\n(§2) In certain embodiments the MIC assays are performed as follows: For each organism, the media and growth conditions utilized is detailed in Table 8."}, "B. subtilis": {"system": "B. subtilis", "format": "cell-based, Bacillus subtilis", "settings": "B. subtilis; BHI, 30° C., aerobic; inoculum 10^5 CFU/ml; 18-24 h or 48 h", "description": "as §1, §2"}, "MRSA": {"system": "MRSA", "format": "cell-based, Methicillin-resistant Staphylococcus aureus", "settings": "MRSA; BHI supplemented with 2% glucose, 37° C., aerobic; inoculum 10^5 CFU/ml; 18-24 h or 48 h", "description": "as §1, §2"}, "A. baumannii": {"system": "A. baumannii", "format": "cell-based, Acinetobacter baumannii", "description": "as §1, §2"}, "A. niger": {"system": "A. niger", "format": "cell-based, Aspergillus niger", "description": "as §1, §2"}, "S. mutans": {"system": "S. mutans", "format": "cell-based, Streptococcus mutans", "description": "as §1, §2"}, "T. rubrum": {"system": "T. rubrum", "format": "cell-based, Trichophyton rubrum", "description": "as §1, §2"}, "A. naeslundii": {"system": "A. naeslundii", "format": "cell-based, Actinomyces naeslundii", "description": "as §1, §2"}, "C. albicans": {"system": "C. albicans", "format": "cell-based, Candida albicans", "description": "as §1, §2"}, "P. gingivalis": {"system": "P. gingivalis", "format": "cell-based, Porphyromonas gingivalis", "description": "as §1, §2"}, "S. epidermidis": {"system": "S. epidermidis", "format": "cell-based", "description": "as §1, §2"}}, "note": "Like-named read-outs stand apart in the source and are kept apart here. Ends that are not written are not given here. Peptide text beside a SMILES is read from it.", "data": [{"compound": "FELVDWLETNLGKILKSKSA [PF-522]", "values": [{"measurement": "MIC", "setting": "C. difficile; C. difficile, BHIS, 37° C., anaerobic, inoculum 10^5 CFU/ml, 18-24 h or 48 h", "result": 25, "unit": "µM"}]}, {"compound": "CC[C@H](C)[C@H](NC(=O)CNC(=O)[C@@H](N)CCSC)C(=O)N[C@H](C(=O)N[C@@H](C)C(=O)NCC(=O)N[C@H](C(=O)N[C@H](C(=O)N[C@@H](CCCCN)C(=O)N[C@@H](Cc1ccccc1)C(=O)N[C@H](C(=O)N[C@@H](CCCCN)C(=O)NCC(=O)N[C@@H](CC(C)C)C(=O)N[C@H](C(=O)N[C@@H](CCC(=O)O)C(=O)N[C@@H](CCCCN)C(=O)N[C@@H](Cc1ccccc1)C(=O)N[C@H](C(=O)NCC(=O)N[C@@H](CCCCN)C(=O)O)[C@@H](C)O)[C@@H](C)CC)[C@@H](C)CC)[C@@H](C)CC)[C@@H](C)CC)[C@@H](C)CC", "note": "[PF-006]", "values": [{"measurement": "MIC", "setting": "B. subtilis", "result": 25, "unit": "µM"}, {"measurement": "MIC", "setting": "MRSA", "result": 50, "unit": "µM"}, {"measurement": "MIC", "setting": "A. baumannii; A. baumannii, LB, 30° C., anaerobic, inoculum 10^5 CFU/ml, 18-24 h or 48 h", "result": 50, "unit": "µM"}]}, {"compound": "CC[C@H](C)[C@H](NC(=O)[C@H](CCCNC(=N)N)NC(=O)[C@@H]1CCCN1C(=O)[C@H](CCC(=O)O)NC(=O)[C@H](CC(C)C)NC(=O)[C@@H]1CCCN1C(=O)[C@H](CC(=O)O)NC(=O)[C@@H](N)CC(C)C)C(=O)N[C@@H](C)C(=O)N1CCC[C@H]1C(=O)N1CCC[C@H]1C(=O)NCC(=O)N[C@@H](CC(=O)O)C(=O)N[C@@H](CCCNC(=N)N)C(=O)N[C@@H](CO)C(=O)N[C@@H](Cc1c[nH]cn1)C(=O)N[C@@H](CCC(N)=O)C(=O)NCC(=O)N[C@@H](C)C(=O)N1CCC[C@H]1C(=O)N[C@@H](C)C(=O)N[C@@H](CS)C(=O)N[C@@H](Cc1c[nH]cn1)C(=O)N[C@@H](CCCNC(=N)N)C(=O)N[C@@H](CC(=O)O)C(=O)N1CCC[C@H]1C(=O)N[C@@H](CC(C)C)C(=O)N[C@@H](CCCNC(=N)N)C(=O)NCC(=O)N[C@@H](CCCNC(=N)N)C(=O)N[C@@H](CO)C(=O)N[C@@H](C)C(=O)N[C@@H](CCCNC(=N)N)C(=O)N[C@@H](CC(=O)O)C(=O)N[C@@H](C)C(=O)N[C@@H](CCC(=O)O)C(=O)N[C@@H](CCCNC(=N)N)C(=O)O", "note": "[PF-C019] (H-LDPLEPRIAPPGDRSHQGAPACHRDPLRGRSARDAER-OH; N-terminus and C-terminus assumed)", "values": [{"measurement": "MIC", "setting": "A. niger", "result": 50, "unit": "µM"}, {"measurement": "MIC", "setting": "S. mutans", "result": 25, "unit": "µM"}, {"measurement": "MIC", "setting": "T. rubrum", "result": 50, "unit": "µM"}]}, {"compound": "CC[C@H](C)[C@H](NC(=O)[C@H](CCC(=O)O)NC(=O)[C@H](CCCCN)NC(=O)[C@@H](NC(=O)[C@H](CCCCN)NC(=O)[C@H](CCC(=O)O)NC(=O)[C@H](CC(C)C)NC(=O)[C@@H](NC(=O)[C@H](CC(=O)O)NC(=O)[C@@H](NC(=O)[C@H](CCC(N)=O)NC(=O)[C@H](CCCCN)NC(=O)[C@H](CCCCN)NC(=O)[C@H](CC(N)=O)NC(=O)[C@@H](N)CCCCN)[C@@H](C)O)[C@@H](C)CC)C(C)C)C(=O)N[C@@H](CC(C)C)C(=O)N[C@@H](CC(=O)O)C(=O)N[C@@H](CCCCN)C(=O)N[C@@H](CCCCN)C(=O)N[C@@H](CCCCN)C(=O)N[C@@H](CCCCN)C(=O)N[C@H](C(=O)N[C@@H](CCCCN)C(=O)N[C@@H](CO)C(=O)N[C@H](C(=O)NCC(=O)N[C@@H](CCC(N)=O)C(=O)N[C@@H](CCCCN)C(=O)N[C@@H](CC(C)C)C(=O)N[C@@H](Cc1ccc(O)cc1)C(=O)O)C(C)C)[C@@H](C)O", "note": "[PF-538] (H-KNKKQTDILEKVKEILDKKKKTKSVGQKLY-OH; N-terminus and C-terminus assumed)", "values": [{"measurement": "MIC", "setting": "C. difficile", "result": 25, "unit": "µM"}, {"measurement": "MIC", "setting": "A. baumannii", "result": 25, "unit": "µM"}]}, {"compound": "CC[C@H](C)[C@H](NC(=O)[C@H](CO)NC(=O)[C@H](CC(C)C)NC(=O)[C@H](CCSC)NC(=O)[C@H](CC(C)C)NC(=O)[C@H](CCC(=O)O)NC(=O)CNC(=O)[C@H](CCCCN)NC(=O)[C@H](Cc1ccc(O)cc1)NC(=O)[C@H](CCC(=O)O)NC(=O)[C@H](CCCCN)NC(=O)[C@@H](NC(=O)[C@@H](NC(=O)[C@@H](NC(=O)[C@H](CCCCN)NC(=O)[C@H](CCCNC(=N)N)NC(=O)[C@H](CC(C)C)NC(=O)[C@@H](NC(=O)[C@H](CCCCN)NC(=O)[C@H](Cc1ccccc1)NC(=O)[C@H](CCCCN)NC(=O)[C@@H](N)CO)C(C)C)[C@@H](C)CC)[C@@H](C)CC)[C@@H](C)CC)C(=O)N[C@@H](CCC(N)=O)C(=O)N[C@@H](CCCCN)C(=O)N[C@@H](CCC(N)=O)C(=O)N[C@@H](CCCNC(=N)N)C(=O)O", "note": "[PF-530] (H-SKFKVLRKIIIKEYKGELMLSIQKQR-OH; N-terminus and C-terminus assumed)", "values": [{"measurement": "MIC", "setting": "A. baumannii", "result": 25, "unit": "µM"}]}, {"compound": "CC[C@H](C)[C@H](N)C(=O)N[C@@H](CC(C)C)C(=O)N[C@@H](CC(N)=O)C(=O)N[C@@H](CCCCN)C(=O)N[C@@H](CCCCN)C(=O)N1CCC[C@H]1C(=O)N[C@@H](CCCCN)C(=O)N[C@@H](CC(C)C)C(=O)N1CCC[C@H]1C(=O)N[C@@H](CC(C)C)C(=O)N[C@@H](Cc1c[nH]c2ccccc12)C(=O)N[C@@H](CCCCN)C(=O)N[C@@H](CC(C)C)C(=O)NCC(=O)N[C@@H](CCCCN)C(=O)N[C@@H](CC(N)=O)C(=O)N[C@@H](Cc1ccc(O)cc1)C(=O)N[C@@H](Cc1ccccc1)C(=O)N[C@@H](CCCNC(=N)N)C(=O)N[C@@H](CCCNC(=N)N)C(=O)N[C@@H](Cc1ccccc1)C(=O)N[C@@H](Cc1ccc(O)cc1)C(=O)N[C@H](C(=O)N[C@@H](CC(C)C)C(=O)N1CCC[C@H]1C(=O)N[C@H](C(=O)N[C@@H](Cc1ccccc1)C(=O)N[C@@H](CC(C)C)C(=O)N[C@@H](C)C(=O)O)[C@@H](C)O)C(C)C", "note": "[PF-C287] (H-ILNKKPKLPLWKLGKNYFRRFYVLPTFLA-OH; N-terminus and C-terminus assumed)", "values": [{"measurement": "MIC", "setting": "A. naeslundii", "result": 25, "unit": "µM"}, {"measurement": "MIC", "setting": "C. albicans", "result": 50, "unit": "µM"}, {"measurement": "MIC", "setting": "P. gingivalis", "result": 50, "unit": "µM"}]}, {"compound": "CC[C@H](C)[C@H](NC(=O)[C@H](CCCCN)NC(=O)[C@H](C)NC(=O)[C@H](Cc1ccccc1)NC(=O)[C@@H](NC(=O)[C@H](C)NC(=O)[C@H](CC(C)C)NC(=O)[C@H](CO)NC(=O)[C@@H](N)CC(C)C)[C@@H](C)O)C(=O)N[C@@H](Cc1ccccc1)C(=O)N[C@@H](CCSC)C(=O)N[C@H](C(=O)N[C@@H](CCCNC(=N)N)C(=O)N[C@@H](CO)C(=O)N[C@@H](CC(N)=O)C(=O)N[C@@H](Cc1c[nH]c2ccccc12)C(=O)N[C@@H](CO)C(=O)N[C@@H](CC(C)C)C(=O)N[C@@H](CCCCN)C(=O)N[C@@H](CCCNC(=N)N)C(=O)N[C@@H](Cc1ccccc1)C(=O)N[C@@H](CC(N)=O)C(=O)N[C@@H](CCCNC(=N)N)C(=O)N[C@@H](CC(C)C)C(=O)O)[C@@H](C)O", "note": "[PF-278] (H-LSLATFAKIFMTRSNWSLKRFNRL-OH; N-terminus and C-terminus assumed)", "values": [{"measurement": "MIC", "setting": "S. epidermidis", "result": 50, "unit": "µM"}, {"measurement": "MIC", "setting": "C. albicans", "result": 50, "unit": "µM"}, {"measurement": "MIC", "setting": "T. rubrum", "result": 50, "unit": "µM"}]}, {"compound": "MPVSKKRYMLSSAYATALGICYGQVATDEKESEITAIPDLLDYLSVEEYLL [PF-C163]", "values": [{"measurement": "MIC", "setting": "A. naeslundii", "result": 50, "unit": "µM"}, {"measurement": "MIC", "setting": "S. epidermidis", "result": 50, "unit": "µM"}, {"measurement": "MIC", "setting": "P. gingivalis", "result": 50, "unit": "µM"}]}, {"compound": "WSRVPGHSDTGWKVWHRW [PF-547]", "values": [{"measurement": "MIC", "setting": "B. subtilis", "result": 25, "unit": "µM"}, {"measurement": "MIC", "setting": "S. mutans; S. mutans, TH supplemented with 1% sucrose, 37° C., anaerobic, inoculum 10^5 CFU/ml, 18-24 h or 48 h", "result": 12.5, "unit": "µM"}, {"measurement": "MIC", "setting": "T. rubrum; T. rubrum, Potato Dextrose Agar, 25° C., aerobic, inoculum 10^5 CFU/ml, 18-24 h or 48 h", "result": 25, "unit": "µM"}]}]}
